Measured values taken from patent publication EP0319030A1, “Aminopropanol derivatives of 1,4:3,6-dianhydro-hexitol nitrates, processes for their preparation and their use as medicaments” (Heinrich Mack Nachf., priority 1987, dated 1989).
Marks after values point to notes of the source that are not given here.

Experiments:
Type in all cases: in vivo
anesthetized dogs = experiment: Cardiovascular actions following intra-venous administration, opened thorax and artificial respiration; settings: opened thorax, artificial respiration
Excerpt: (§1) In particular, they have a pronounced cardiovascular action. On isolated strips of veins from dogs, they act against the K⁺-induced contraction in a lower concentration than on aorta strips. On isolated hearts from guinea pigs, they increase coronary flow as a function of the dose. On anesthetized rats, they prevent lypressin coronary spasm as a function of the dose and significiantly increase the survival rate of rats following acute cardiac infarction. On normotensive conscious dogs, they lower the systolic blood pressure for a period of 6-8 hours after oral administration. On artifically respirated anesthetized, thoraxotomized dogs, they reduce the mean arterial pressure, the left ventricular systolic pressure, the left ventricular end diastolic pressure and the pressure in the Arteria pulmonalis and reduce the peripheral vascular resistance. In contrast to the known organic nitrate esters, they also lead to a long-lasting reduction in the systolic blood pressure of spontaneously hypertensive rats. Such an action profile is not known for any of the substances of similar structure which have already been described.

conscious beagle dogs = experiment: Systolic blood pressure and heart rate following peroral administration; settings: 6.0 mg/kg peroral, mean ± SEM
Excerpt: as §1

rats = experiment: Survival rate after acute coronary ligature, method of I. Lepran et al.; settings: 30.0 mg/kg orally 5 minutes before ligature
Excerpt: as §1

Mice = experiment: Peroral tolerance in mice; settings: mouse, in vivo
Excerpt: Set forth below is data obtained on the compounds of Examples 17, 19 and 20 that illustrates the pharmacological action of the compounds of the present invention.

anesthetized rat = experiment: Lypressin-induced T-wave increase in the ECG (lypressin coronary spasm), method of M. Leitold et al.
Excerpt: as §1

SMILES: COc1ccccc1N1CCN(CC(O)CO[C@H]2CO[C@H]3[C@@H]2OC[C@H]3O[N+](=O)[O-])CC1 (stereo partly shown) [Example 17, 2-O-<3-[4-(2-Methoxyphenyl)-piperazinyl]-2-hydroxypropyl>-isosorbide-5-nitrate]
- CO, Action of substance (anesthetized dogs; 30 µg/kg intra-venous): 0.93 ± 0.07 l/M
- CO, Change (anesthetized dogs; 30 µg/kg intra-venous): 0.07 ± 0.04 l/M
- CO, Duration of action (anesthetized dogs; 30 µg/kg intra-venous): 6 ± 3 min
- HR (heart rate), Action of substance (anesthetized dogs; 30 µg/kg intra-venous): 219 ± 18 Bts/M
- HR (heart rate), Change (anesthetized dogs; 30 µg/kg intra-venous): 21 ± 18 Bts/M
- HR (heart rate), Duration of action (anesthetized dogs; 30 µg/kg intra-venous): 6 ± 2 min
- LVEDP (left ventricular enddiastolic pressure), Action of substance (anesthetized dogs; 30 µg/kg intra-venous): 6.2 ± 0.7 mmHg
- LVEDP (left ventricular enddiastolic pressure), Change (anesthetized dogs; 30 µg/kg intra-venous): 0.2 ± 0.03 mmHg
- LVEDP (left ventricular enddiastolic pressure), Duration of action (anesthetized dogs; 30 µg/kg intra-venous): 2.2 ± 1.3 min
- LVSP (left ventricular systolic blood pressure), Action of substance (anesthetized dogs; 30 µg/kg intra-venous): 131 ± 9 mmHg
- LVSP (left ventricular systolic blood pressure), Change (anesthetized dogs; 30 µg/kg intra-venous): 19 ± 6 mmHg
- LVSP (left ventricular systolic blood pressure), Duration of action (anesthetized dogs; 30 µg/kg intra-venous): 5 ± 3 min
- MAP (mean arterial blood pressure), Action of substance (anesthetized dogs; 30 µg/kg intra-venous): 83 ± 1 mmHg
- MAP (mean arterial blood pressure), Change (anesthetized dogs; 30 µg/kg intra-venous): 23 ± 2 mmHg
- MAP (mean arterial blood pressure), Duration of action (anesthetized dogs; 30 µg/kg intra-venous): 14 ± 1 min
- PAP, Action of substance (anesthetized dogs; 30 µg/kg intra-venous): 17.0 ± 4 mmHg
- PAP, Change (anesthetized dogs; 30 µg/kg intra-venous): 1.3 ± 0.5 mmHg
- PAP, Duration of action (anesthetized dogs; 30 µg/kg intra-venous): 2 ± 0.3 min
- SV, Action of substance (anesthetized dogs; 30 µg/kg intra-venous): 52 ± 0.4 mL/s
- SV, Change (anesthetized dogs; 30 µg/kg intra-venous): 0.4 ± 0.2 mL/s
- SV, Duration of action (anesthetized dogs; 30 µg/kg intra-venous): 2 ± 0.2 min
- TPR (total peripheral vascular resistance), Action of substance (anesthetized dogs; 30 µg/kg intra-venous): 65 ± 12 mmHg/ml
- TPR (total peripheral vascular resistance), Change (anesthetized dogs; 30 µg/kg intra-venous): 23 ± 4 mmHg/ml
- TPR (total peripheral vascular resistance), Duration of action (anesthetized dogs; 30 µg/kg intra-venous): > 14 min
- dp/dtmax (maximum rate of increase in the left ventricular pressure), Action of substance (anesthetized dogs; 30 µg/kg intra-venous): 3144 ± 166 mmHg/s
- dp/dtmax (maximum rate of increase in the left ventricular pressure), Change (anesthetized dogs; 30 µg/kg intra-venous): 424 ± 95 mmHg/s
- dp/dtmax (maximum rate of increase in the left ventricular pressure), Duration of action (anesthetized dogs; 30 µg/kg intra-venous): 8 ± 3 min
- CO, Action of substance (anesthetized dogs; 300 µg/kg intra-venous): 0.684 ± 0.137 l/M
- CO, Change (anesthetized dogs; 300 µg/kg intra-venous): 0.127 ± 0.046 l/M
- CO, Duration of action (anesthetized dogs; 300 µg/kg intra-venous): 73 ± 40 min
- HR (heart rate), Action of substance (anesthetized dogs; 300 µg/kg intra-venous): 206 ± 15 Bts/M
- HR (heart rate), Change (anesthetized dogs; 300 µg/kg intra-venous): 15 ± 13 Bts/M
- HR (heart rate), Duration of action (anesthetized dogs; 300 µg/kg intra-venous): 2.4 ± 1 min
- LVEDP (left ventricular enddiastolic pressure), Action of substance (anesthetized dogs; 300 µg/kg intra-venous): 5.5 ± 0.8 mmHg
- LVEDP (left ventricular enddiastolic pressure), Change (anesthetized dogs; 300 µg/kg intra-venous): 0.3 ± 0.1 mmHg
- LVEDP (left ventricular enddiastolic pressure), Duration of action (anesthetized dogs; 300 µg/kg intra-venous): 5.6 ± 2 min
- LVSP (left ventricular systolic blood pressure), Action of substance (anesthetized dogs; 300 µg/kg intra-venous): 115 ± 4 mmHg
- LVSP (left ventricular systolic blood pressure), Change (anesthetized dogs; 300 µg/kg intra-venous): 39 ± 5 mmHg
- LVSP (left ventricular systolic blood pressure), Duration of action (anesthetized dogs; 300 µg/kg intra-venous): 151 ± 24 min
- MAP (mean arterial blood pressure), Action of substance (anesthetized dogs; 300 µg/kg intra-venous): 49 ± 3 mmHg
- MAP (mean arterial blood pressure), Change (anesthetized dogs; 300 µg/kg intra-venous): 55 ± 6 mmHg
- MAP (mean arterial blood pressure), Duration of action (anesthetized dogs; 300 µg/kg intra-venous): 157 ± 39 min
- PAP, Action of substance (anesthetized dogs; 300 µg/kg intra-venous): 18.2 ± 5 mmHg
- PAP, Change (anesthetized dogs; 300 µg/kg intra-venous): 1.5 ± 0.5 mmHg
- PAP, Duration of action (anesthetized dogs; 300 µg/kg intra-venous): 1.4 ± 0.1 min
- SV, Action of substance (anesthetized dogs; 300 µg/kg intra-venous): 3.7 ± 0.4 mL/s
- SV, Change (anesthetized dogs; 300 µg/kg intra-venous): 0.7 ± 0.3 mL/s
- SV, Duration of action (anesthetized dogs; 300 µg/kg intra-venous): 74 ± 43 min
- TPR (total peripheral vascular resistance), Action of substance (anesthetized dogs; 300 µg/kg intra-venous): 42 ± 2 mmHg/ml
- TPR (total peripheral vascular resistance), Change (anesthetized dogs; 300 µg/kg intra-venous): 42 ± 6 mmHg/ml
- TPR (total peripheral vascular resistance), Duration of action (anesthetized dogs; 300 µg/kg intra-venous): 163 ± 16 min
- dp/dtmax (maximum rate of increase in the left ventricular pressure), Action of substance (anesthetized dogs; 300 µg/kg intra-venous): 2133 ± 310 mmHg/s
- dp/dtmax (maximum rate of increase in the left ventricular pressure), Change (anesthetized dogs; 300 µg/kg intra-venous): 1547 ± 423 mmHg/s
- dp/dtmax (maximum rate of increase in the left ventricular pressure), Duration of action (anesthetized dogs; 300 µg/kg intra-venous): > 197 min
- CO, Action of substance (anesthetized dogs; 3000 µg/kg intra-venous): 0.405 ± 0.055 l/M
- CO, Change (anesthetized dogs; 3000 µg/kg intra-venous): 0.450 ± 0.025 l/M
- CO, Duration of action (anesthetized dogs; 3000 µg/kg intra-venous): > 75 min
- HR (heart rate), Action of substance (anesthetized dogs; 3000 µg/kg intra-venous): 182 ± 17 Bts/M
- HR (heart rate), Change (anesthetized dogs; 3000 µg/kg intra-venous): 20 ± 17 Bts/M
- HR (heart rate), Duration of action (anesthetized dogs; 3000 µg/kg intra-venous): 1.4 ± 0.3 min
- LVEDP (left ventricular enddiastolic pressure), Action of substance (anesthetized dogs; 3000 µg/kg intra-venous): 5.6 ± 1 mmHg
- LVEDP (left ventricular enddiastolic pressure), Change (anesthetized dogs; 3000 µg/kg intra-venous): 0.6 ± 0.3 mmHg
- LVEDP (left ventricular enddiastolic pressure), Duration of action (anesthetized dogs; 3000 µg/kg intra-venous): > 73 min
- LVSP (left ventricular systolic blood pressure), Action of substance (anesthetized dogs; 3000 µg/kg intra-venous): 113 ± 3 mmHg
- LVSP (left ventricular systolic blood pressure), Change (anesthetized dogs; 3000 µg/kg intra-venous): 48 ± 3 mmHg
- LVSP (left ventricular systolic blood pressure), Duration of action (anesthetized dogs; 3000 µg/kg intra-venous): > 74 min
- MAP (mean arterial blood pressure), Action of substance (anesthetized dogs; 3000 µg/kg intra-venous): 33 ± 2 mmHg
- MAP (mean arterial blood pressure), Change (anesthetized dogs; 3000 µg/kg intra-venous): 67 ± 4 mmHg
- MAP (mean arterial blood pressure), Duration of action (anesthetized dogs; 3000 µg/kg intra-venous): > 114 min
- PAP, Action of substance (anesthetized dogs; 3000 µg/kg intra-venous): 18.2 ± 7 mmHg
- PAP, Change (anesthetized dogs; 3000 µg/kg intra-venous): 2.3 ± 0.8 mmHg
- PAP, Duration of action (anesthetized dogs; 3000 µg/kg intra-venous): 2 ± 0.6 min
- SV, Action of substance (anesthetized dogs; 3000 µg/kg intra-venous): 3.0 ± 0.6 mL/s
- SV, Change (anesthetized dogs; 3000 µg/kg intra-venous): 2.6 ± 0.4 mL/s
- SV, Duration of action (anesthetized dogs; 3000 µg/kg intra-venous): > 75 min
- TPR (total peripheral vascular resistance), Action of substance (anesthetized dogs; 3000 µg/kg intra-venous): 44 ± 10 mmHg/ml
- TPR (total peripheral vascular resistance), Change (anesthetized dogs; 3000 µg/kg intra-venous): 74 ± 6 mmHg/ml
- TPR (total peripheral vascular resistance), Duration of action (anesthetized dogs; 3000 µg/kg intra-venous): 24 ± 6 min
- dp/dtmax (maximum rate of increase in the left ventricular pressure), Action of substance (anesthetized dogs; 3000 µg/kg intra-venous): 2019 ± 123 mmHg/s
- dp/dtmax (maximum rate of increase in the left ventricular pressure), Change (anesthetized dogs; 3000 µg/kg intra-venous): 1828 ± 238 mmHg/s
- dp/dtmax (maximum rate of increase in the left ventricular pressure), Duration of action (anesthetized dogs; 3000 µg/kg intra-venous): > 75 min
- HR (heart rate), Action of substance after 1 hours (conscious beagle dogs): 101 ± 17 Bts/M
- HR (heart rate), Action of substance after 2 hours (conscious beagle dogs): 110 ± 16 Bts/M
- HR (heart rate), Action of substance after 4 hours (conscious beagle dogs): 89 ± 8 Bts/M
- HR (heart rate), Action of substance after 6 hours (conscious beagle dogs): 89 ± 5 Bts/M
- HR (heart rate), Action of substance after 8 hours (conscious beagle dogs): 85 ± 7 Bts/M
- SBP (systolic blood pressure), Action of substance after 1 hours (conscious beagle dogs): 91 ± 6 mmHg
- SBP (systolic blood pressure), Action of substance after 2 hours (conscious beagle dogs): 89 ± 4 mmHg
- SBP (systolic blood pressure), Action of substance after 4 hours (conscious beagle dogs): 97 ± 5 mmHg
- SBP (systolic blood pressure), Action of substance after 6 hours (conscious beagle dogs): 101 ± 5 mmHg
- SBP (systolic blood pressure), Action of substance after 8 hours (conscious beagle dogs): 115 ± 7 mmHg
- Number of rats surviving after an acute coronary ligature, 24 hours (rats; control 21/80): 17/20**
- Number of rats surviving after an acute coronary ligature, 7 days (rats; control 21/80): 17/20**
- Number of rats surviving after an acute coronary ligature, 60 minutes (rats; control 23/80): 17/20**
- tolerance (clinical symptoms, fatal consequences) (Mice): without clinical symptoms and without fatal consequences
- ED50 (anesthetized rat; Rattus norvegicus, po, 0.5 h, perorally 30 minutes before the lypressin injection, dose column in mg/kg): 89.5 mg/kg
- Duration of action at the ED50 dose (anesthetized rat; perorally at various times before the lypressin injection): 2 h
